Results: US10570129B2 (Zoetis Services LLC, priority 2015, dated 2020)

Columns and labels:
Haemonchus contortus L3 = assay: microbe, parasite or virus in culture; assay type: cell-based; details: Haemonchus contortus, 96 h, read-out: HcL3 Minimal Effective Concentration (MEC)
D. immitis microfilariae = assay: Dirofilaria immitis, microfilariae (DiMF) in vitro motility assay; assay type: cell-based; details: Dirofilaria immitis, 72 h, read-out: DiMF minimally effective dose (MEC)

SMILES | minimal effective concentration (Haemonchus contortus L3) [µM] | minimal effective concentration (D. immitis microfilariae) [µM]
N#Cc1ccc2c(c1)c1c(n2C(=O)NCc2ccnc(F)c2)CCN(C/C=C/c2ccc(F)cc2Br)C1 [Example 125, (E)-2-(3-(2-bromo-4-fluorophenyl)allyl)-8-cyano-N-((2-fluoropyridin-4-yl)methyl)-1,2,3,4-tetrahydro-5H-pyrido[4,3-b]indole-5-carboxamide] | 0.3 | > 100
N#Cc1ccc2c(c1)c1c(n2C(=O)NCc2ccnc(F)c2)CCN(C/C=C/c2cc(Br)cs2)C1 [Example 126, (E)-2-(3-(4-bromothiophen-2-yl)allyl)-8-cyano-N-((2-fluoropyridin-4-yl)methyl)-1,2,3,4-tetrahydro-5H-pyrido[4,3-b]indole-5-carboxamide] | > 100 | > 100
Cc1ccc2c3c(n(C(=O)NCc4ccnc(Cl)c4)c2c1)CCN(C/C=C/c1ccc(Cl)c(Cl)c1)C3 [Example 145, (E)-N-((2-chloropyridin-4-yl)methyl)-2-(3-(3,4-dichlorophenyl)allyl)-7-methyl-1,2,3,4-tetrahydro-5H-pyrido[4,3-b]indole-5-carboxamide] | 1 | 33
Cc1ccc2c3c(n(C(=O)NCc4ccnc(Cl)c4)c2c1)CCN(C/C=C/c1ccc(Cl)cc1)C3 [Example 146, (E)-2-(3-(4-chlorophenyl)allyl)-N-((2-chloropyridin-4-yl)methyl)-7-methyl-1,2,3,4-tetrahydro-5H-pyrido[4,3-b]indole-5-carboxamide] | 0.4 | 10
Cc1cccc2c1c1c(n2C(=O)NCc2ccnc(Cl)c2)CCN(C/C=C/c2ccc(Cl)cc2)C1 [Example 147, (E)-2-(3-(4-chlorophenyl)allyl)-N-((2-chloropyridin-4-yl)methyl)-9-methyl-1,2,3,4-tetrahydro-5H-pyrido[4,3-b]indole-5-carboxamide] | 2.8 | 10
Cc1cccc2c1c1c(n2C(=O)NCc2ccnc(Cl)c2)CCN(C/C=C/c2ccc(F)cc2)C1 [Example 149, (E)-N-((2-chloropyridin-4-yl)methyl)-2-(3-(4-fluorophenyl)allyl)-9-methyl-1,2,3,4-tetrahydro-5H-pyrido[4,3-b]indole-5-carboxamide] | 4.4 | 10
Cc1ccc2c3c(n(C(=O)NCc4ccnc(Cl)c4)c2c1)CCN(C/C=C/c1ccc(C(F)(F)F)cc1)C3 [Example 150, (E)-N-((2-chloropyridin-4-yl)methyl)-7-methyl-2-(3-(4-(trifluoromethyl)-phenyl)allyl)-1,2,3,4-tetrahydro-5H-pyrido[4,3-b]indole-5-carboxamide] | 3.3 | 10
CS(=O)(=O)c1ccc(/C=C/CN2CCc3c(c4ccc(C(F)(F)F)cc4n3C(=O)NCc3ccnc(Cl)c3)C2)cc1 [Example 151, (E)-N-((2-chloropyridin-4-yl)methyl)-2-(3-(4-(methylsulfonyl)phenyl)allyl)-7-(trifluoromethyl)-1,2,3,4-tetrahydro-5H-pyrido[4,3-b]indole-5-carboxamide] | > 100 | 13.5
N#Cc1ccc(/C=C/CN2CCc3c(c4ccc(C(F)(F)F)cc4n3C(=O)NCc3ccnc(Cl)c3)C2)cc1F [Example 153, (E)-N-((2-chloropyridin-4-yl)methyl)-2-(3-(4-cyano-3-fluorophenyl)allyl)-7-(trifluoromethyl)-1,2,3,4-tetrahydro-5H-pyrido[4,3-b]indole-5-carboxamide] | 1.3 | 7.6
O=C(NCc1ccnc(Cl)c1)n1c2c(c3c(C(F)(F)F)cccc31)CN(C/C=C/c1ccc(Cl)cc1)CC2 [Example 157, (E)-2-(3-(4-chlorophenyl)allyl)-N-((2-chloropyridin-4-yl)methyl)-9-(trifluoromethyl)-1,2,3,4-tetrahydro-5H-pyrido[4,3-b]indole-5-carboxamide] | 3.8 | 11.9
O=C(NCc1ccnc(Cl)c1)n1c2c(c3ccc(C(F)(F)F)cc31)CN(C/C=C/c1ccc(Cl)c(Cl)c1)CC2 [Example 158, (E)-N-((2-chloropyridin-4-yl)methyl)-2-(3-(3,4-dichlorophenyl)allyl)-7-(trifluoromethyl)-1,2,3,4-tetrahydro-5H-pyrido[4,3-b]indole-5-carboxamide] | 2.2 | 16.8
O=C(NCc1ccnc(Cl)c1)n1c2c(c3c(C(F)(F)F)cccc31)CN(C/C=C/c1ccc(Cl)c(Cl)c1)CC2 [Example 159, (E)-N-((2-chloropyridin-4-yl)methyl)-2-(3-(3,4-dichlorophenyl)allyl)-9-(trifluoromethyl)-1,2,3,4-tetrahydro-5H-pyrido[4,3-b]indole-5-carboxamide] | 18.2 | 10
O=C(NCc1ccnc(Cl)c1)n1c2c(c3ccc(C(F)(F)F)cc31)CN(C/C=C/c1ccc(F)cc1)CC2 [Example 160, (E)-N-((2-chloropyridin-4-yl)methyl)-2-(3-(4-fluorophenyl)allyl)-7-(trifluoromethyl)-1,2,3,4-tetrahydro-5H-pyrido[4,3-b]indole-5-carboxamide] | 1.8 | 10
O=C(NCc1ccnc(Cl)c1)n1c2c(c3c(C(F)(F)F)cccc31)CN(C/C=C/c1ccc(F)cc1)CC2 [Example 161, (E)-N-((2-chloropyridin-4-yl)methyl)-2-(3-(4-fluorophenyl)allyl)-9-(trifluoromethyl)-1,2,3,4-tetrahydro-5H-pyrido[4,3-b]indole-5-carboxamide] | 2.1 | 10
O=C(NCc1ccnc(Cl)c1)n1c2c(c3c(C(F)(F)F)cccc31)CN(C/C=C/c1ccc(C(F)(F)F)cc1)CC2 [Example 162, (E)-N-((2-chloropyridin-4-yl)methyl)-9-(trifluoromethyl)-2-(3-(4-(trifluoromethyl)-phenyl)allyl)-1,2,3,4-tetrahydro-5H-pyrido[4,3-b]indole-5-carboxamide] | > 100 | 10
O=C(NCc1ccnc(F)c1)n1c2c(c3ccc(C(F)(F)F)cc31)CN(C/C=C/c1ccc(Cl)c(Cl)c1)CC2 [Example 166, (E)-2-(3-(3,4-dichlorophenyl)allyl)-N-((2-fluoropyridin-4-yl)methyl)-7-(trifluoromethyl)-1,2,3,4-tetrahydro-5H-pyrido[4,3-b]indole-5-carboxamide] | 10 | 5.7
O=C(NCc1ccnc(Cl)c1)n1c2c(c3cc(F)ccc31)CN(C/C=C/c1ccc(Cl)c(Cl)c1)CC2 [Example 167, (E)-N-((2-chloropyridin-4-yl)methyl)-2-(3-(3,4-dichlorophenyl)allyl)-8-fluoro-1,2,3,4-tetrahydro-5H-pyrido[4,3-b]indole-5-carboxamide] | 0.3 | 33
N#Cc1ccc(/C=C/CN2CCc3c(c4cc(F)ccc4n3C(=O)NCc3ccnc(Cl)c3)C2)cc1 [Example 168, (E)-N-((2-chloropyridin-4-yl)methyl)-2-(3-(4-cyanophenyl)allyl)-8-fluoro-1,2,3,4-tetrahydro-5H-pyrido[4,3-b]indole-5-carboxamide] | 0.5 | 10
O=C(NCc1ccnc(Cl)c1)n1c2c(c3cc(F)ccc31)CN(C/C=C/c1ccc(Cl)cc1)CC2 [Example 169, (E)-2-(3-(4-chlorophenyl)allyl)-N-((2-chloropyridin-4-yl)methyl)-8-fluoro-1,2,3,4-tetrahydro-5H-pyrido[4,3-b]indole-5-carboxamide] | 0.1 | 18.2
O=C(NCc1ccc(F)cc1)n1c2c(c3cc(F)ccc31)CN(C/C=C/c1ccc(Cl)cc1)CC2 [Example 170, (E)-2-(3-(4-chlorophenyl)allyl)-8-fluoro-N-(4-fluorobenzyl)-1,2,3,4-tetrahydro-5H-pyrido[4,3-b]indole-5-carboxamide] | > 100 | 1
N#Cc1cc2c3c(n(C(=O)NCc4ccnc(Cl)c4)c2cc1C(F)(F)F)CCN(C/C=C/c1ccc(Cl)cc1)C3 [Example 171, (E)-2-(3-(4-chlorophenyl)allyl)-N-((2-chloropyridin-4-yl)methyl)-8-cyano-7-(trifluoromethyl)-1,2,3,4-tetrahydro-5H-pyrido[4,3-b]indole-5-carboxamide] | 0.5 | 10
N#Cc1cc2c(cc1F)c1c(n2C(=O)NCc2ccnc(Cl)c2)CCN(C/C=C/c2ccc(Cl)c(F)c2)C1 [Example 172, (E)-2-(3-(4-chloro-3-fluorophenyl)allyl)-N-((2-chloropyridin-4-yl)methyl)-7-cyano-8-fluoro-1,2,3,4-tetrahydro-5H-pyrido[4,3-b]indole-5-carboxamide] | 10 | > 100
N#Cc1ccc(/C=C/CN2CCc3c(c4cc(F)c(C#N)cc4n3C(=O)NCc3ccnc(Cl)c3)C2)cc1 [Example 173, (E)-N-((2-chloropyridin-4-yl)methyl)-7-cyano-2-(3-(4-cyanophenyl)allyl)-8-fluoro-1,2,3,4-tetrahydro-5H-pyrido[4,3-b]indole-5-carboxamide] | 18.2 | > 100
N#Cc1cc2c(cc1F)c1c(n2C(=O)NCc2ccnc(F)c2)CCN(C/C=C/c2ccc(Cl)cc2)C1 [Example 174, (E)-2-(3-(4-chlorophenyl)allyl)-7-cyano-8-fluoro-N-((2-fluoropyridin-4-yl)methyl)-1,2,3,4-tetrahydro-5H-pyrido[4,3-b]indole-5-carboxamide] | 57.4 | > 100
N#Cc1cc2c(cc1F)c1c(n2C(=O)NCc2ccnc(Cl)c2)CCN(C/C=C/c2ccc(F)cc2)C1 [Example 175, (E)-N-((2-chloropyridin-4-yl)methyl)-7-cyano-8-fluoro-2-(3-(4-fluorophenyl)allyl)-1,2,3,4-tetrahydro-5H-pyrido[4,3-b]indole-5-carboxamide] | 1.8 | 10
